Patent US20250129095A1, “ANNULATED 2-AMINO-3-CYANO THIOPHENES AND DERIVATIVES FOR THE TREATMENT OF CANCER” (Boehringer Ingelheim Int'l GmbH Corp., priority 2021, published 2025)

Key:
Caco-2 assay = type: in vitro ADME; conditions: human, 10 μM test compound, pH 7.4
Text: The assay provides information on the potential of a compound to pass the cell membrane, on the extent of oral absorption as well as on whether the compound is actively transported by uptake and/or efflux transporters. Permeability measurements across polarized, confluent Caco-2 cell monolayers grown on permeable filter supports (Corning, catalog #3391) are used. […] The receiver and donor compartments contain 0.25% bovine serum albumine (BSA) in assay buffer. Passive diffusion and/or active transport of compounds across the monolayer is measured in both apical to basolateral (a-b) and basolateral to apical (b-a) direction. a-b permeability (PappAB) represents drug absorption from the intestine into the blood and b-a permeability (PappBA) drug secretion from the blood back into the intestine via both passive permeability as well as active transport mechanisms mediated by efflux and uptake transporters that are expressed on the Caco-2 cells. After a pre-incubation of 25-30 min at 37° C., at predefined time points (0, 30, 60 and 90 min), samples were taken from the receiver and donor compartment, respectively.
Concentrations of test compounds in samples were measured by HPLC/MS/MS, samples from the donor compartment were diluted 1:50 (v:v) with assay buffer, samples from receiver compartment were measured without dilution.
Apparent permeabilities in a-b (PappAB) and b-a (PappBA) directions are calculated according to the formula:
[formula] • Vrec [mL]: buffer volume in receiver compartment • Cdon [pmol/mL]: concentration of test compound in donor compartment at t=0 • ΔCrec: difference between concentrations of test compound in receiver compartment at start and end of incubation time • Δt: Incubation time • Vrec·ΔCrec/Δt [[…]]: Amount of compound transferred to receiver compartment per time • A [cm^2]: filter surface
Caco-2 efflux ratios (ER) are calculated as the ratio of PappBA/PappAB.

KRAS (G12V)::SOS1 = biological target: T1, KRAS (G12V)::SOS1 (Homo sapiens, UniProt P01116, C118S/G12V); test: KRAS::SOS1 AlphaScreen binding assay, KRAS G12V
T1 construct: KRAS (G12V) 1-169, N-terminal 6His-tag for purification, cleaved off; 6His-tag (N, cleaved yes); TEV cleavage site; made in house
T1 sequence (P01116 1-169 isoform P01116-2 G12V/C118S): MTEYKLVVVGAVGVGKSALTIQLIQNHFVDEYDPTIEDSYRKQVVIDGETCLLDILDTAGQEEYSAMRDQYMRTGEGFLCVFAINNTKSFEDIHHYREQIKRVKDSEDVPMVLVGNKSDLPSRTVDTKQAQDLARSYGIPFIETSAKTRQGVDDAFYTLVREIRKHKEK
Text: (§1) This assay can be used to examine the potency with which compounds according to the invention binding to (mutated) KRAS inhibit the protein-protein interaction between SOS1 and (mutated) KRAS e.g., KRAS WT, KRAS G12C, KRAS G12D, KRAS G12V, KRAS G13D. […] Low IC50 values in this assay setting are indicative of strong inhibition of protein-protein interaction between SOS1 and KRAS:
(§2) These assays measure the inhibitory effect of compounds on KRAS mutant protein-protein interactions using the Alpha Screen technology by Perkin Elmer
(§3) The following (mutant) enzyme forms of KRAS and interacting proteins are used in these assays at the given concentrations: • KRAS (G12D) 1-169, N-terminal 6His-tag, C-terminal avi-tag (Xtal BioStructures, Inc.); final assay concentration 10 nM and SOS1 564-1049, N-terminal 229 GST-tag, TEV cleavage site (Viva Biotech Ltd); final assay concentration 5 nM; • KRAS (G12C) 1-169, N-terminal 6His-tag for purification, cleaved off, C-terminal avi-tag, biotinylated, mutations: C51S, C80L, C118S (in house); final assay concentration 7.5 nM and SOS1 564-1049, N-terminal 229 GST-tag, TEV cleavage site (Viva Biotech Ltd); final assay concentration 5 nM; • KRAS (G12V) 1-169, N-terminal 6His-tag for purification, cleaved off, C-terminal avi-tag, biotinylated, TEV cleavage site, mutation: C118S, GDP loaded (in house); final assay concentration 10 nM and SOS1 564-1049, N-terminal 229 GST-tag, TEV cleavage site (Viva Biotech Ltd); final assay concentration 10 nM; • KRAS (G13D) 1-169, N-terminal 6His-tag for purification, cleaved off, C-terminal avi-tag, biotinylated, TEV cleavage site, mutation: C118S, GDP loaded (in house); final assay concentration 10 nM and SOS1 564-1049, N-terminal 229 GST-tag, TEV cleavage site (Viva Biotech Ltd); final assay concentration 10 nM; • KRAS (WT) 1-169, N-terminal 6His-tag for purification, cleaved off, C-terminal avi-tag, biotinylated, TEV cleavage site, mutation: C118S, GDP loaded (in house); final assay concentration 10 nM and SOS1 564-1049, N-terminal 229 GST-tag, TEV cleavage site (Viva Biotech Ltd); final assay concentration 10 nM.
(§4) Test compounds dissolved in DMSO are dispensed onto assay plates (Proxiplate 384 PLUS, white, PerkinElmer; 6008289) using an Access Labcyte Workstation with the Labcyte Echo 55×. For the chosen highest assay concentration of 100 μM, 150 nL of compound solution are transferred from a 10 mM DMSO compound stock solution. A series of eleven fivefold dilutions per compound are transferred to the assay plate, compound dilutions are tested in duplicates. DMSO are added as backfill to a total volume of 150 nL.
(§5) The assays run on a fully automated robotic system in a darkened room below 100 Lux. To 150 nl of compound dilution 10 μl of a mix including KRAS mutant protein, SOS1 (final assay concentrations see above) and GDP nucleotide (Sigma G7127; final assay concentration 10 μM) in assay buffer (1×PBS, 0.1% BSA, 0.05% Tween 20) are added into columns 1-24.
(§6) After 30 minutes incubation time 5 μl of Alpha Screen bead mix in assay buffer are added into columns 1-23. Bead mix consists of AlphaLISA Glutathione Acceptor Beads (PerkinElmer, Cat No AL109) and AlphaScreen Streptavidin Donor Beads (PerkinElmer Cat No 6760002) in assay buffer at a final assay concentration of 10 μg/ml each.
(§7) Plates are kept at room temperature in a darkened incubator. After an additional 60 minutes incubation time the signal is measured in a PerkinElmer Envision HTS Multilabel Reader using the AlphaScreen specs from PerkinElmer.
(§8) Each plate contains up to 16 wells of a negative control depending on the dilution procedure (platewise or serial) (DMSO instead of test compound; with KRAS mutant::SOS1 GDP mix and bead mix; column 23) and 16wells of a positive control (DMSO instead of test compound; with KRAS mutant::SOS1 GDP mix w/o bead mix; column 24).
(§9) As internal control known inhibitors of KRAS mutant::SOS1 interaction can be measured on each compound plate. […]

KRAS (WT)::SOS1 = biological target: T2, KRAS (WT)::SOS1 (Homo sapiens, UniProt P01116, C118S); test: KRAS::SOS1 AlphaScreen binding assay, KRAS WT
T2 construct: KRAS (WT) 1-169, N-terminal 6His-tag for purification, cleaved off; 6His-tag (N, cleaved yes); TEV cleavage site; made in house
T2 sequence (P01116 1-169 isoform P01116-2 C118S): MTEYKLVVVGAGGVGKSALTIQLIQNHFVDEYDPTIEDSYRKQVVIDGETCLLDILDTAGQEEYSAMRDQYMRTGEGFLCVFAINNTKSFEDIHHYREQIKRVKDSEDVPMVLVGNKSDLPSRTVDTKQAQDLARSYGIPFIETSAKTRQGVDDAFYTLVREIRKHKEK
Text: as §1, §2, §3, §4, §5, §6, §7, §8, §9

## C[C@H](Oc1cc(O[C@@H]2CNC2(C)C)nc(-c2noc3c2CCC[C@@]32CCCc3sc(N)c(C#N)c32)n1)[C@@H]1C[C@@H](F)CN1C [II-31]
Caco-2 assay; Caco-2, apical to basolateral (a-b) permeability, read-out: Caco PappAB
  Papp A→B at 90 min, 10 μM: 0.8 ×10⁻⁶ cm/s
Caco-2 assay; Caco-2 efflux ratio PappBA/PappAB, read-out: Caco ER
  efflux ratio at 90 min, 10 μM: 50.7
KRAS (G12V)::SOS1
  IC50: 2 nM
KRAS (WT)::SOS1
  IC50: 2 nM
